Results published in US20260217761A1, “ANTIMICROBIAL PEPTIDE RICH IN TRYPTOPHAN AND HAVING SELF-ASSEMBLY PROPERTIES, AND USE THEREOF” (NANOQURE BIOTECH (SHENZHEN) CO., LTD., priority 2022, published 2026).
Converted amounts (≈) assume the structure as drawn. “And” between values parts separate entries of the source, which are not always exact repeats. Equal entries are not always repeated. Where two headings read alike, the source gives them in different places. Residues, ends and D or L forms follow the SMILES beside them. No end group written: not given here.

How the values were obtained:
P. aeruginosa = assay: Killing curve (bactericidal activity) against P. aeruginosa; assay type: cell-based, Pseudomonas aeruginosa
Protocol: (§1) • A. To determine the bactericidal ability of polypeptide Z4, Pseudomonas aeruginosa and Staphylococcus aureus were suspended in PBS until OD600 nm=0.4, then diluted 1000 times with fresh PBS and mixed in equal volumes. Polypeptide Z4 was added to the bacterial suspension at concentrations of 1×MIC and 2×MIC. […] After incubation at 37° C. for 18 h, the single colonies of the microorganisms were counted. The experiment was repeated 3 times and the average value was calculated.

S. aureus = assay: Killing curve (bactericidal activity) against S. aureus; assay type: cell-based, Staphylococcus aureus
Protocol: as §1

[1] = system: mixed biofilm of P. aeruginosa and S. aureus; assay: Anti-biofilm activity on formed mixed biofilm (crystal violet); assay type: cell-based; conditions: for removal effect on the formed biofilm: 3 h
Protocol: • B. To investigate the anti-biofilm activity of polypeptide Z4, P. aeruginosa and S. aureus were grown overnight at 37° C. in tryptic soy broth medium until the logarithmic phase, and then diluted to 1×10^7 CFU/mL and 1×10^6 CFU/mL respectively, and mixed in equal amounts to prepare a mixed bacterial culture. Subsequently, 100 μL of the mixed bacterial suspension was incubated at 37° C. for 24 h to obtain a mixed biofilm. Then, antimicrobial peptides with a final concentration of 2-32 μM were added to a 96-well plate. After incubation at 37° C. for 3 h, the medium was discarded, and the 96-well plate was washed three times with PBS (pH=7.2). After drying at room temperature, 200 μL/well of […] crystal violet staining solution was added to the plate. After incubation at 37° C. for 30 minutes, it was rinsed three times with PBS. After air drying at room temperature, 200 μL/well of 95% ethanol was added and incubated at 37° C. for 30 min, and the absorbance was measured at 595 nm. A total of 3 experiments were set up, and each experiment was repeated 3 times.

[2] = system: mixed bacterial solution of Pseudomonas aeruginosa and Staphylococcus aureus; assay type: cell-based, Pseudomonas aeruginosa PAO1 and Staphylococcus aureus SP1
Protocol: • A. The antimicrobial peptide was prepared into a certain stock solution for use. 0.01% acetic acid (containing 0.2% BSA) was used as the diluent, and a series of gradient antimicrobial peptide solutions were prepared sequentially by a two-fold dilution method. • B. 100 μL of the above-mentioned antimicrobial peptide stock solution was taken and placed in a 96-well cell culture plate. Then, an equal volume of the test bacterial solution (approximately 10^5 cells/mL) was added to each well. A positive control (containing the bacterial solution but no antimicrobial peptide) and a negative control (containing neither bacterial solution nor the peptide) were included, respectively. […] The culture plate was placed in a constant temperature incubator at 37° C. for 20 h. The minimum inhibitory concentration is determined as the condition where no turbidity is observed at the bottom of the well with naked eyes.

various bacteria = assay: MIC against various bacteria (broad-spectrum antimicrobial activity); assay type: cell-based
Protocol: • A. The antimicrobial peptide was prepared into a certain stock solution for use. 0.01% acetic acid (containing 0.2% BSA) was used as the diluent, and a series of gradient antimicrobial peptide solutions were prepared sequentially by a two-fold dilution method. • B. 100 μL of the above-mentioned antimicrobial peptide stock solution was taken and placed in a 96-well cell culture plate. Then, an equal volume of the test bacterial solution (approximately 10^5 cells/mL) was added to each well. A positive control (containing the bacterial solution but no antimicrobial peptide) and a negative control (containing neither bacterial solution nor the peptide) were included, respectively. The test bacterial species include Pseudomonas aeruginosa (Pseudomonas aeruginosa PL1, Pseudomonas aeruginosa SP1), Staphylococcus aureus (Staphylococcus aureus 544, Staphylococcus aureus 103), Escherichia coli (Escherichia coli 729, Escherichia coli 112), Klebsiella Pneumoniae (Klebsiella Pneumoniae 106, Klebsiella Pneumoniae 727), Streptococcus pneumonia 383, Acinetobacter baumannii (Acinetobacter baumannii 946, Acinetobacter baumannii 780) (FIG. 1), or Pseudomonas aeruginosa (Pseudomonas aeruginosa PAO1), Staphylococcus aureus (Staphylococcus aureus SP1), and a mixed solution of the above two bacteria (FIG. 2). • C. The culture plate was placed in a constant temperature incubator at 37° C. for 20 h. The minimum inhibitory concentration is determined as the condition where no turbidity is observed at the bottom of the well with naked eyes.
• A. The polypeptide Z4 composed entirely of dextrorotatory amino acids is called the dextrorotatory isomer of polypeptide Z4. The polypeptide Z4-D was prepared into a certain stock solution for use. […] The minimum inhibitory concentration is determined as the condition where no turbidity is observed at the bottom of the well with naked eyes.

[3] = Self-assembly observed by scanning electron microscopy (SEM); assay type: physicochemical; conditions: in phosphate-buffered saline (PBS) (pH=7.2)
Protocol: Without being bound by any theory, it is deduced that the reason why WW++W++WW has better self-assembly activity and MIC than +++WWW+++ is based on the WW at both ends of the peptide, rather than the number of positively charged amino acids (K and/or R). • B. Observation of polypeptide Z4 by scanning electron microscopy (SEM): To prepare SEM samples for observing the self-assembly of the polypeptide, 10 μL of the polypeptide was placed on tin foil that had been ultrasonically treated for 30 min.
After drying, the samples were sputter-coated with gold. All samples were observed using Gimini SEM 500.

[4] = system: P. aeruginosa in the catheter biofilm; assay: In vivo bactericidal activity in the catheter biofilm, P. aeruginosa; conditions: mice, versus PBS control
[5] = system: S. aureus in the catheter biofilm; assay: In vivo bactericidal activity in the catheter biofilm, S. aureus; conditions: mice, versus PBS control
IL-6 = IL-6 content in the skin tissue at the infected site; assay type: in vivo; conditions: mice
inflammatory cells = assay: Inflammatory cells in sections of skin tissue at the infected site; assay type: in vivo; conditions: mice, versus PBS control
[6] = system: mixed bacterial solution of P. aeruginosa PAO1 and S. aureus SP1; assay type: cell-based
Protocol: After ultrasonic treatment of polypeptide Z4 and polypeptide Z4-D for 30 min, they were placed at room temperature for 2 h to promote their self-assembly. Subsequently, proteinase K with a final concentration of 0.2 g/mL was mixed with the polypeptide solution (final concentration of 640 μM) and incubated at 37° C. for 0, 30, 60, 90 or 120 min respectively. Then, according to the scheme described in Example 2, the MICs of the polypeptides against the mixed bacterial solution of P. aeruginosa PAO1 and S. aureus SP1 under different treatment conditions were determined.

Compound: Gentamicin
- survival number of P. aeruginosa (P. aeruginosa; 1×MIC, 0 min): 140000 CFU/mL and 126000 CFU/mL and 130000 CFU/mL and 122000 CFU/mL
- survival number of P. aeruginosa (P. aeruginosa; 1×MIC, 15 min): 116000 CFU/mL and 120000 CFU/mL and 140000 CFU/mL and 108000 CFU/mL
- survival number of P. aeruginosa (P. aeruginosa; 1×MIC, 30 min): 104000 CFU/mL and 126000 CFU/mL and 110000 CFU/mL
- survival number of P. aeruginosa (P. aeruginosa; 1×MIC, 60 min): 112000 CFU/mL and 92000 CFU/mL and 106000 CFU/mL and 110000 CFU/mL
- survival number of P. aeruginosa (P. aeruginosa; 1×MIC, 120 min): 30000 CFU/mL and 52000 CFU/mL and 54000 CFU/mL
- survival number of P. aeruginosa (P. aeruginosa; 1×MIC, 300 min): 0 CFU/mL
- survival number of P. aeruginosa (P. aeruginosa; 2×MIC, 0 min): 142000 CFU/mL and 134000 CFU/mL and 122000 CFU/mL and 106000 CFU/mL
- survival number of P. aeruginosa (P. aeruginosa; 2×MIC, 15 min): 166000 CFU/mL and 104000 CFU/mL and 136000 CFU/mL and 128000 CFU/mL
- survival number of P. aeruginosa (P. aeruginosa; 2×MIC, 30 min): 116000 CFU/mL and 154000 CFU/mL and 126000 CFU/mL and 130000 CFU/mL
- survival number of P. aeruginosa (P. aeruginosa; 2×MIC, 60 min): 92000 CFU/mL and 82000 CFU/mL and 70000 CFU/mL and 68000 CFU/mL
- survival number of P. aeruginosa (P. aeruginosa; 2×MIC, 240 min): 0 CFU/mL
- survival number of S. aureus (S. aureus; 1×MIC, 30 min): 2000 CFU/mL and 4000 CFU/mL
- survival number of S. aureus (S. aureus; 1×MIC, 180 min): 2000 CFU/mL and 4000 CFU/mL
- survival number of S. aureus (S. aureus; 1×MIC, 360 min): 0 CFU/mL
- survival number of S. aureus (S. aureus; 2×MIC, 300 min): 0 CFU/mL
- survival number of S. aureus (S. aureus; 2×MIC, 360 min): 0 CFU/mL
- removal effect on the formed biofilm ([1]; concentration 2 μM): 90.78% and 99.18% and 100%
- removal effect on the formed biofilm ([1]; concentration 4 μM): 67.84% and 74.15% and 105.2663%
- removal effect on the formed biofilm ([1]; concentration 8 μM): 86.98% and 97.37% and 78.85%
- removal effect on the formed biofilm ([1]; concentration 16 μM): 64.53% and 107.33% and 74.22%
- concentration at which more than 50% of the biofilm is removed ([1]; mixed biofilm): 32 µM

Compound: NCCCC[C@H](NC(=O)[C@H](CCCCN)NC(=O)[C@H](Cc1c[nH]c2ccccc12)NC(=O)[C@H](CCCCN)NC(=O)[C@H](CCCCN)NC(=O)[C@H](Cc1c[nH]c2ccccc12)NC(=O)[C@@H](N)Cc1c[nH]c2ccccc12)C(=O)N[C@@H](Cc1c[nH]c2ccccc12)C(=O)N[C@@H](Cc1c[nH]c2ccccc12)C(N)=O [Z4, WWKKWKKWW-NH2] (H-WWKKWKKWW-NH2; N-terminus assumed)
- minimum inhibitory concentration (MIC) [2]: 4 µM (≈ 5.84 µg/mL)
- minimum inhibitory concentration (MIC) ([2]; mixed bacterial solution of Pseudomonas aeruginosa and Staphylococcus aureus): 4 µM (≈ 5.84 µg/mL)
- broad-spectrum antimicrobial activity (various bacteria): good broad-spectrum antimicrobial activity
- average particle size of self-assembled nanomicelle [3]: 174.62 nanometers
- time within which all P. aeruginosa were killed (P. aeruginosa; 1×MIC (4 μM)): ≤ 60 min
- survival number of P. aeruginosa (P. aeruginosa; 1×MIC, 0 min): 134000 CFU/mL and 112000 CFU/mL and 104000 CFU/mL
- survival number of P. aeruginosa (P. aeruginosa; 1×MIC, 60 min): 0 CFU/mL
- survival number of P. aeruginosa (P. aeruginosa; 1×MIC, 120 min): 0 CFU/mL
- survival number of P. aeruginosa (P. aeruginosa; 1×MIC, 180 min): 0 CFU/mL
- survival number of P. aeruginosa (P. aeruginosa; 1×MIC, 240 min): 0 CFU/mL
- survival number of P. aeruginosa (P. aeruginosa; 1×MIC, 300 min): 0 CFU/mL
- time within which all P. aeruginosa were killed (P. aeruginosa; 2×MIC (8 μM)): ≤ 30 min
- survival number of P. aeruginosa (P. aeruginosa; 2×MIC, 0 min): 186000 CFU/mL and 136000 CFU/mL and 132000 CFU/mL
- survival number of P. aeruginosa (P. aeruginosa; 2×MIC, 30 min): 0 CFU/mL
- survival number of P. aeruginosa (P. aeruginosa; 2×MIC, 60 min): 0 CFU/mL
- survival number of P. aeruginosa (P. aeruginosa; 2×MIC, 120 min): 0 CFU/mL
- survival number of P. aeruginosa (P. aeruginosa; 2×MIC, 180 min): 0 CFU/mL
- survival number of P. aeruginosa (P. aeruginosa; 2×MIC, 240 min): 0 CFU/mL
- bactericidal rate against P. aeruginosa compared with gentamicin (P. aeruginosa; compared with gentamicin): faster bactericidal rate
- time within which all S. aureus were killed (S. aureus; 1×MIC (4 μM)): ≤ 360 min
- survival number of S. aureus (S. aureus; 1×MIC, 300 min): 2000 CFU/mL
- survival number of S. aureus (S. aureus; 1×MIC, 360 min): 0 CFU/mL
- time within which all S. aureus were killed (S. aureus; 2×MIC (8 μM)): ≤ 360 min
- survival number of S. aureus (S. aureus; 2×MIC, 360 min): 0 CFU/mL
- bactericidal rate against S. aureus compared with gentamicin (S. aureus; compared with gentamicin): no significant difference in the bactericidal rate
- removal effect on the formed biofilm ([1]; concentration 4 μM): 32.16% and 56.39% and 56.88%
- removal effect on the formed biofilm ([1]; concentration 8 μM): 28.16% and 29.51% and 42.64%
- anti-biofilm activity ([1]; mixed biofilm): good and direct anti-biofilm activity
- concentration at which more than 50% of biofilm is removed ([1]; mixed biofilm): 8 μm
- concentration at which more than 50% of the biofilm is removed ([1]; mixed biofilm): 8 µM
- number of Pseudomonas aeruginosa colonized in the catheter [4]: significantly reduced
- number of Staphylococcus aureus colonized in the catheter [5]: significantly reduced
- IL-6 content in the skin tissue at the infected site (IL-6; Biofilm + Z4): 110.6228 pg/g and 89.73 pg/g and 91.09 pg/g and 95.94 pg/g and 137.9124 pg/g and 127.2606 pg/g and 88.31 pg/g and 94.64 pg/g
- level of IL-6 in the skin tissue (IL-6; versus PBS control): reduced
- number of infiltrated inflammatory cells (inflammatory cells): reduced
- MIC after proteinase K treatment ([6]; 2 h): 8 µM (≈ 11.7 µg/mL)
- decrease of antimicrobial activity due to hydrolysis by proteinase K ([6]; proteinase K treatment, 90 minutes): 50%
- MIC before increase under proteinase K treatment ([6]; proteinase K treatment, before 90 minutes): 4 µM (≈ 5.84 µg/mL)

Compound: KWKWWWKWK-NH2 [Z1, centrally symmetric 9-peptide of tryptophan and lysine]
- broad-spectrum antimicrobial activity (various bacteria): good broad-spectrum antimicrobial activity
